Reference: patent US20070049564A1 (Wyeth, priority 2005, published 2007)
Values after ≈ are worked out from the molar mass of the structure shown. Like-named read-outs stand apart in the source and are kept apart here.

What was measured:
Test in all cases: MIC, broth microdilution
E. coli GC 2233 = conditions: Escherichia coli
E. coli GC 2270 = conditions: Escherichia coli
E. coli GC 2271 = conditions: Escherichia coli
E. coli GC 2272 = conditions: Escherichia coli
E. coli GC 4560 = conditions: Escherichia coli
E. coli GC 6465 = conditions: Escherichia coli
E. coli GC 3226 = conditions: Escherichia coli
E. coli GC 2203 = conditions: Escherichia coli
E. coli GC 1073 = conditions: Escherichia coli
P. aeruginosa GC 2214 = conditions: Pseudomonas aeruginosa
S. aureus GC 1131 = conditions: Staphylococcus aureus
S. aureus GC 6467 = conditions: Staphylococcus aureus
S. aureus GC 1079 = conditions: Staphylococcus aureus
S. aureus GC 6335 = conditions: Staphylococcus aureus
S. aureus GC 6469 = conditions: Staphylococcus aureus
S. epidermidis GC 4935 = conditions: Staphylococcus epidermidis
E. faecalis GC 2265 = conditions: Enterococcus faecalis
E. faecalis GC 2267 = conditions: Enterococcus faecalis
E. faecium GC 2243 = conditions: Enterococcus faecium
c. albicans GC 3066 = tested on: c. albicans GC 3066

- MIC (E. coli GC 2233; GC2233, read-out: MINIMAL INHIBITORY CONCENTRATION MIC, pre-incubated in Human Serum): 4 µg/mL (≈ 5.29 µM)
- MIC (E. coli GC 2233; GC2233, read-out: MINIMAL INHIBITORY CONCENTRATION MIC, pre-incubated in Mouse Serum): 0.5 µg/mL (≈ 0.662 µM)
- MIC (E. coli GC 2233; GC2233, read-out: MINIMAL INHIBITORY CONCENTRATION MIC, pre-incubated in Water): 64 µg/mL (≈ 84.7 µM)
- MIC (E. coli GC 2270; GC2270, read-out: MINIMAL INHIBITORY CONCENTRATION MIC, pre-incubated in Human Serum): 4 µg/mL (≈ 5.29 µM)
- MIC (E. coli GC 2270; GC2270, read-out: MINIMAL INHIBITORY CONCENTRATION MIC, pre-incubated in Mouse Serum): 0.5 µg/mL (≈ 0.662 µM)
- MIC (E. coli GC 2270; GC2270, read-out: MINIMAL INHIBITORY CONCENTRATION MIC, pre-incubated in Water): > 64 µg/mL
- MIC (E. coli GC 2271; GC2271, read-out: MINIMAL INHIBITORY CONCENTRATION MIC, pre-incubated in Human Serum): 4 µg/mL (≈ 5.29 µM)
- MIC (E. coli GC 2271; GC2271, read-out: MINIMAL INHIBITORY CONCENTRATION MIC, pre-incubated in Mouse Serum): 0.5 µg/mL (≈ 0.662 µM)
- MIC (E. coli GC 2271; GC2271, read-out: MINIMAL INHIBITORY CONCENTRATION MIC, pre-incubated in Water): 64 µg/mL (≈ 84.7 µM)
- MIC (E. coli GC 2272; GC2272, read-out: MINIMAL INHIBITORY CONCENTRATION MIC, pre-incubated in Human Serum): 4 µg/mL (≈ 5.29 µM)
- MIC (E. coli GC 2272; GC2272, read-out: MINIMAL INHIBITORY CONCENTRATION MIC, pre-incubated in Mouse Serum): 1 µg/mL (≈ 1.32 µM)
- MIC (E. coli GC 2272; GC2272, read-out: MINIMAL INHIBITORY CONCENTRATION MIC, pre-incubated in Water): 64 µg/mL (≈ 84.7 µM)
- MIC (E. coli GC 4560; GC4560, read-out: MINIMAL INHIBITORY CONCENTRATION MIC, pre-incubated in Human Serum): 1 µg/mL (≈ 1.32 µM)
- MIC (E. coli GC 4560; GC4560, read-out: MINIMAL INHIBITORY CONCENTRATION MIC, pre-incubated in Mouse Serum): 0.5 µg/mL (≈ 0.662 µM)
- MIC (E. coli GC 4560; GC4560, read-out: MINIMAL INHIBITORY CONCENTRATION MIC, pre-incubated in Water): 4 µg/mL (≈ 5.29 µM)
- MIC (E. coli GC 6465; GC6465, read-out: MINIMAL INHIBITORY CONCENTRATION MIC, pre-incubated in Human Serum): 16 µg/mL (≈ 21.2 µM)
- MIC (E. coli GC 6465; GC6465, read-out: MINIMAL INHIBITORY CONCENTRATION MIC, pre-incubated in Mouse Serum): 2 µg/mL (≈ 2.65 µM)
- MIC (E. coli GC 6465; GC6465, read-out: MINIMAL INHIBITORY CONCENTRATION MIC, pre-incubated in Water): > 64 µg/mL
- MIC (E. coli GC 3226; GC3226, read-out: MINIMAL INHIBITORY CONCENTRATION MIC, pre-incubated in Human Serum): 16 µg/mL (≈ 21.2 µM)
- MIC (E. coli GC 3226; GC3226, read-out: MINIMAL INHIBITORY CONCENTRATION MIC, pre-incubated in Mouse Serum): 1 µg/mL (≈ 1.32 µM)
- MIC (E. coli GC 3226; GC3226, read-out: MINIMAL INHIBITORY CONCENTRATION MIC, pre-incubated in Water): > 64 µg/mL
- MIC (E. coli GC 2203; GC2203, read-out: MINIMAL INHIBITORY CONCENTRATION MIC, pre-incubated in Human Serum): 8 µg/mL (≈ 10.6 µM)
- MIC (E. coli GC 2203; GC2203, read-out: MINIMAL INHIBITORY CONCENTRATION MIC, pre-incubated in Mouse Serum): 0.5 µg/mL (≈ 0.662 µM)
- MIC (E. coli GC 2203; GC2203, read-out: MINIMAL INHIBITORY CONCENTRATION MIC, pre-incubated in Water): > 64 µg/mL
- MIC (E. coli GC 1073; GC1073, read-out: MINIMAL INHIBITORY CONCENTRATION MIC, pre-incubated in Human Serum): 8 µg/mL (≈ 10.6 µM)
- MIC (E. coli GC 1073; GC1073, read-out: MINIMAL INHIBITORY CONCENTRATION MIC, pre-incubated in Mouse Serum): 1 µg/mL (≈ 1.32 µM)
- MIC (E. coli GC 1073; GC1073, read-out: MINIMAL INHIBITORY CONCENTRATION MIC, pre-incubated in Water): > 64 µg/mL
- MIC (P. aeruginosa GC 2214; GC2214, read-out: MINIMAL INHIBITORY CONCENTRATION MIC, pre-incubated in Human Serum): > 64 µg/mL
- MIC (P. aeruginosa GC 2214; GC2214, read-out: MINIMAL INHIBITORY CONCENTRATION MIC, pre-incubated in Mouse Serum): 16 µg/mL (≈ 21.2 µM)
- MIC (P. aeruginosa GC 2214; GC2214, read-out: MINIMAL INHIBITORY CONCENTRATION MIC, pre-incubated in Water): > 64 µg/mL
- MIC (S. aureus GC 1131; GC1131, read-out: MINIMAL INHIBITORY CONCENTRATION MIC, pre-incubated in Human Serum): 0.5 µg/mL (≈ 0.662 µM)
- MIC (S. aureus GC 1131; GC1131, read-out: MINIMAL INHIBITORY CONCENTRATION MIC, pre-incubated in Mouse Serum): 0.5 µg/mL (≈ 0.662 µM)
- MIC (S. aureus GC 1131; GC1131, read-out: MINIMAL INHIBITORY CONCENTRATION MIC, pre-incubated in Water): 0.5 µg/mL (≈ 0.662 µM)
- MIC (S. aureus GC 6467; GC6467, read-out: MINIMAL INHIBITORY CONCENTRATION MIC, pre-incubated in Human Serum): 0.5 µg/mL (≈ 0.662 µM)
- MIC (S. aureus GC 6467; GC6467, read-out: MINIMAL INHIBITORY CONCENTRATION MIC, pre-incubated in Mouse Serum): 1 µg/mL (≈ 1.32 µM)
- MIC (S. aureus GC 6467; GC6467, read-out: MINIMAL INHIBITORY CONCENTRATION MIC, pre-incubated in Water): 1 µg/mL (≈ 1.32 µM)
- MIC (S. aureus GC 1079; GC1079, read-out: MINIMAL INHIBITORY CONCENTRATION MIC, pre-incubated in Human Serum): 0.5 µg/mL (≈ 0.662 µM)
- MIC (S. aureus GC 1079; GC1079, read-out: MINIMAL INHIBITORY CONCENTRATION MIC, pre-incubated in Mouse Serum): 0.5 µg/mL (≈ 0.662 µM)
- MIC (S. aureus GC 1079; GC1079, read-out: MINIMAL INHIBITORY CONCENTRATION MIC, pre-incubated in Water): 0.5 µg/mL (≈ 0.662 µM)
- MIC (S. aureus GC 6335; GC6335, read-out: MINIMAL INHIBITORY CONCENTRATION MIC, pre-incubated in Human Serum): 0.5 µg/mL (≈ 0.662 µM)
- MIC (S. aureus GC 6335; GC6335, read-out: MINIMAL INHIBITORY CONCENTRATION MIC, pre-incubated in Mouse Serum): 1 µg/mL (≈ 1.32 µM)
- MIC (S. aureus GC 6335; GC6335, read-out: MINIMAL INHIBITORY CONCENTRATION MIC, pre-incubated in Water): 1 µg/mL (≈ 1.32 µM)
- MIC (S. aureus GC 6469; GC6469, read-out: MINIMAL INHIBITORY CONCENTRATION MIC, pre-incubated in Human Serum): 0.5 µg/mL (≈ 0.662 µM)
- MIC (S. aureus GC 6469; GC6469, read-out: MINIMAL INHIBITORY CONCENTRATION MIC, pre-incubated in Mouse Serum): 1 µg/mL (≈ 1.32 µM)
- MIC (S. aureus GC 6469; GC6469, read-out: MINIMAL INHIBITORY CONCENTRATION MIC, pre-incubated in Water): 1 µg/mL (≈ 1.32 µM)
- MIC (S. epidermidis GC 4935; GC4935, read-out: MINIMAL INHIBITORY CONCENTRATION MIC, pre-incubated in Human Serum): 1 µg/mL (≈ 1.32 µM)
- MIC (S. epidermidis GC 4935; GC4935, read-out: MINIMAL INHIBITORY CONCENTRATION MIC, pre-incubated in Mouse Serum): 1 µg/mL (≈ 1.32 µM)
- MIC (S. epidermidis GC 4935; GC4935, read-out: MINIMAL INHIBITORY CONCENTRATION MIC, pre-incubated in Water): 2 µg/mL (≈ 2.65 µM)
- MIC (E. faecalis GC 2265; GC2265, read-out: MINIMAL INHIBITORY CONCENTRATION MIC, pre-incubated in Human Serum): 1 µg/mL (≈ 1.32 µM)
- MIC (E. faecalis GC 2265; GC2265, read-out: MINIMAL INHIBITORY CONCENTRATION MIC, pre-incubated in Mouse Serum): 0.5 µg/mL (≈ 0.662 µM)
- MIC (E. faecalis GC 2265; GC2265, read-out: MINIMAL INHIBITORY CONCENTRATION MIC, pre-incubated in Water): 2 µg/mL (≈ 2.65 µM)
- MIC (E. faecalis GC 2267; GC2267, read-out: MINIMAL INHIBITORY CONCENTRATION MIC, pre-incubated in Human Serum): 1 µg/mL (≈ 1.32 µM)
- MIC (E. faecalis GC 2267; GC2267, read-out: MINIMAL INHIBITORY CONCENTRATION MIC, pre-incubated in Mouse Serum): 0.5 µg/mL (≈ 0.662 µM)
- MIC (E. faecalis GC 2267; GC2267, read-out: MINIMAL INHIBITORY CONCENTRATION MIC, pre-incubated in Water): 2 µg/mL (≈ 2.65 µM)
- MIC (E. faecium GC 2243; GC2243, read-out: MINIMAL INHIBITORY CONCENTRATION MIC, pre-incubated in Human Serum): 0.25 µg/mL (≈ 0.331 µM)
- MIC (E. faecium GC 2243; GC2243, read-out: MINIMAL INHIBITORY CONCENTRATION MIC, pre-incubated in Mouse Serum): 0.25 µg/mL (≈ 0.331 µM)
- MIC (E. faecium GC 2243; GC2243, read-out: MINIMAL INHIBITORY CONCENTRATION MIC, pre-incubated in Water): 0.5 µg/mL (≈ 0.662 µM)
- MIC (c. albicans GC 3066; Candida albicans, GC3066, read-out: MINIMAL INHIBITORY CONCENTRATION MIC): > 64 µg/mL
- MINIMAL INHIBITORY CONCENTRATION MIC (c. albicans GC 3066; pre-incubated in Human Serum): >64 UG/ML
- MINIMAL INHIBITORY CONCENTRATION MIC (c. albicans GC 3066; pre-incubated in Mouse Serum): >64 UG/ML
Structure (SMILES): CN(C)c1cc(NC(=O)CN(C(=O)OCOC(=O)C2CCCC2)C(C)(C)C)c(O)c2c1C[C@H]1C[C@H]3[C@H](N(C)C)C(O)=C(C(N)=O)C(=O)[C@@]3(O)C(O)=C1C2=O [Example 46, ({[(2-{[(5aR,6aS,7S,10aS)-9-(aminocarbonyl)-4,7-bis(dimethylamino)-1,8,10a,11-tetrahydroxy-10,12-dioxo-5,5a,6,6a,7,10,10a,12-octahydrotetracen-2-yl]amino}-2-oxoethyl)(tert-butyl)amino]carbonyl}oxy)methyl cyclopentanecarboxylate]
